This note sets out measurements from patent publication US4450269A, “Mono-5-substituted-3-chloro-4H-1,2,6-thiadiazin-4-one antifungal agents” (FMC Corporation, priority 1980, dated 1984).

The test system of one experiment is Sclerotinia fructicola. Briefly: Mycelial growth test. In kind it is cell-based. Particulars: SF; for Percent Fungus Growth Inhibition: 72 hours; for inhibition at 5 ppm / inhibition at 10 ppm / inhibition at 20 ppm / inhibition at 40 ppm: Sclerotinia, 72 h, read-out: Percent Fungus Growth Inhibition. The text has this: | SF = Sclerotinia fructicola
A further experiment deals with Pyricularia oryzae. Briefly: whole plant or invertebrate. Format: in vivo. Particulars: for Percent Disease Control, curative, rice blast: 150 ppm, 24 hours after inoculation; for pest or weed control at 150 ppm: Pyricularia oryzae, foliar, 24 h, read-out: Percent Disease Control, curative, rice blast, 150 ppm, 24 hours after inoculation.
Experiment [1] concerns Uromyces phaseoli. Briefly: whole plant or invertebrate. Particulars: foliar, read-out: Percent Disease Control, foliar, bean rust.
For experiment [2], the system named is Uromyces phaseoli. Put plainly: whole plant or invertebrate. Conditions: foliar, 24 h, read-out: Percent Disease Control, curative, bean rust.
Another experiment has as its system Erysiphe polygoni. Briefly: whole plant or invertebrate. Conditions: foliar, 24 h, read-out: Percent Disease Control, curative, bean powdery mildew.

By inhibition is commonly meant how much of the control response was suppressed.

Counter-ions that a name gives are not always drawn. Like-named read-outs stand apart in the source and are kept apart here.

“3-chloro-5-[methylaminocarbonyloxy)phenoxyl]-4H-1,2,6-thiadiazin-4-one [Compound 36]”: the “Percent Fungus Growth Inhibition” value was found to be 38% in the experiment on Sclerotinia fructicola (5 ppm), 62% with Sclerotinia fructicola (10 ppm), 58% in the experiment with Sclerotinia fructicola (20 ppm) and 100% in the experiment on Sclerotinia fructicola (40 ppm). Moreover, the “Percent Disease Control, curative, rice blast” value with Pyricularia oryzae worked out at 95%.

As for `O=c1c(Cl)nsnc1Oc1ccccc1` [Compound 2, 3-chloro-5-phenoxy-4H--1,2,6-thiadiazin-4-one], the pest or weed control at 150 ppm in the experiment on Uromyces phaseoli [1] came out at 100%; in the experiment with Uromyces phaseoli [2], 0%; in the experiment on Erysiphe polygoni, 100%; in the experiment on Pyricularia oryzae it was 0%. Also, in the experiment with Sclerotinia fructicola (5 ppm), the inhibition at 5 ppm turned out to be 52%. In addition, the inhibition at 10 ppm in the experiment on Sclerotinia fructicola (10 ppm) was 67%. Besides, in the experiment on Sclerotinia fructicola (20 ppm), the inhibition at 20 ppm came to 100%. The inhibition at 40 ppm with Sclerotinia fructicola (40 ppm) came out at 100%.

Regarding `Cc1ccc(Oc2nsnc(Cl)c2=O)cc1` [Compound 3, 3-chloro-5-(4-methylphenoxy)-4H--1,2,6-thiadiazin-4-one], the pest or weed control at 150 ppm was determined as 100% in the experiment on Uromyces phaseoli [1], 0% with Uromyces phaseoli [2], 0% in the experiment with Erysiphe polygoni and 0% in the experiment on Pyricularia oryzae. In addition, the inhibition at 5 ppm with Sclerotinia fructicola (5 ppm) was found to be 27%. Further, the inhibition at 10 ppm in the experiment with Sclerotinia fructicola (10 ppm) was 67%. Also, in the experiment with Sclerotinia fructicola (20 ppm), the inhibition at 20 ppm was 94%. Moreover, the inhibition at 40 ppm in the experiment on Sclerotinia fructicola (40 ppm) amounted to 100%.

As to `CC(C)(C)c1ccc(Oc2nsnc(Cl)c2=O)cc1` [Compound 4, 3-chloro-5-(4-tert-butylphnoxy)-4H--1,2,6-thiadiazin-4-one], the pest or weed control at 150 ppm with Uromyces phaseoli [1] was 100%; in the experiment on Uromyces phaseoli [2], 75%; in the experiment on Erysiphe polygoni it was 100%; in the experiment on Pyricularia oryzae it was 95%. The inhibition at 5 ppm in the experiment on Sclerotinia fructicola (5 ppm) was 0%. The inhibition at 10 ppm in the experiment on Sclerotinia fructicola (10 ppm) came to 0%. In addition, the inhibition at 20 ppm with Sclerotinia fructicola (20 ppm) came to 4%. Besides, the inhibition at 40 ppm in the experiment on Sclerotinia fructicola (40 ppm) is 0%.

For the molecule `COc1ccc(Oc2nsnc(Cl)c2=O)cc1` [Compound 5, 3-chloro-5-(4-methoxyphenoxy)4H--1,2,6-thiadiazin-4-one], the pest or weed control at 150 ppm was 100% in the experiment on Uromyces phaseoli [1], 0% with Uromyces phaseoli [2], 0% in the experiment on Erysiphe polygoni and 75% in the experiment on Pyricularia oryzae. In addition, the inhibition at 5 ppm in the experiment on Sclerotinia fructicola (5 ppm) is 27%. The inhibition at 10 ppm in the experiment with Sclerotinia fructicola (10 ppm) is 42%. In the experiment on Sclerotinia fructicola (20 ppm), the inhibition at 20 ppm came out at 67%. For the same molecule, the inhibition at 40 ppm in the experiment with Sclerotinia fructicola (40 ppm) came out at 73%.

As for `O=c1c(Cl)nsnc1Oc1cccc(Cl)c1Cl` [Compound 19, 3-chloro-5-(2,3-dichlorophenoxy)-4H--1,2,6-thiadiazin-4-one], the pest or weed control at 150 ppm in the experiment with Uromyces phaseoli [1] was determined as 0%; with Uromyces phaseoli [2], 100%; with Pyricularia oryzae it was 0%. Moreover, the inhibition at 5 ppm with Sclerotinia fructicola (5 ppm) is 64%. In addition, in the experiment on Sclerotinia fructicola (10 ppm), the inhibition at 10 ppm was 76%. Besides, the inhibition at 20 ppm with Sclerotinia fructicola (20 ppm) worked out at 100%. Further, the inhibition at 40 ppm in the experiment with Sclerotinia fructicola (40 ppm) was 100%.

Consider `Nc1ccc(Oc2nsnc(Cl)c2=O)cc1` [Compound 27, 5-(4-aminophenoxy)-3-chloro-4H--1,2,6-thiadiazine-4-one hydrochloride], for which the “Percent Fungus Growth Inhibition” value was found to be 0% with Sclerotinia fructicola (5 ppm, hydrochloride); 21% in the experiment with Sclerotinia fructicola (10 ppm, hydrochloride); 28% in the experiment with Sclerotinia fructicola (20 ppm, hydrochloride); 86% in the experiment with Sclerotinia fructicola (40 ppm, hydrochloride). In the experiment on Pyricularia oryzae (hydrochloride), the “Percent Disease Control, curative, rice blast” value is listed as 95%.

On to `Cc1cc(Oc2nsnc(Cl)c2=O)cc(C)c1Cl` [Compound 59, 3-chloro-5-[(4-chloro-3,5-dimethyl)phenoxy]-4H--1,2,6-thiadiazin-4-one], for which the pest or weed control at 150 ppm in the experiment with Uromyces phaseoli [1], in the experiment on Uromyces phaseoli [2] and in the experiment on Pyricularia oryzae was 0% in each case. Besides, the inhibition at 5 ppm in the experiment with Sclerotinia fructicola (5 ppm) was determined as 71%. Besides, the inhibition at 10 ppm in the experiment with Sclerotinia fructicola (10 ppm) was 68%. The inhibition at 20 ppm with Sclerotinia fructicola (20 ppm) stood at 59%. Besides, the inhibition at 40 ppm in the experiment with Sclerotinia fructicola (40 ppm) turned out to be 74%.

For `Cc1cc(Oc2nsnc(Cl)c2=O)cc(C)c1Br` [Compound 60, 3-[(4-bromo-3,5-dimethyl)-phenoxy]-5-chloro-4H--1,2,6-thiadiazin-4-one], the pest or weed control at 150 ppm in the experiment with Uromyces phaseoli [1] worked out at 100%; in the experiment with Uromyces phaseoli [2], 0%; with Pyricularia oryzae it was 0%. Besides, the inhibition at 5 ppm in the experiment on Sclerotinia fructicola (5 ppm) was found to be 56%. The inhibition at 10 ppm in the experiment with Sclerotinia fructicola (10 ppm) worked out at 71%. For the same molecule, the inhibition at 20 ppm in the experiment on Sclerotinia fructicola (20 ppm) was 65%. Further, in the experiment with Sclerotinia fructicola (40 ppm), the inhibition at 40 ppm came out at 71%.
